Test results as given in ChEMBL document CHEMBL5444388, “Affinity Phenotypic Cellular Literature for EUbOPEN Chemogenomic Library” (2024).

What was measured:
Type in all cases: functional, cell-based
Parameters in all cases: recommended concentration 100 nM
[1] = target: Centromere-associated protein E (Homo sapiens) (UniProt Q02224); assay: Affinity Phenotypic Cellular interaction: (Cell-growth inhibition assays (growth inhibitory effect colon cancer cell line SNU-449)) EUB0000734a CENPE; conditions: Affinity Phenotypic Cellular Source Knowledge https://pubmed.ncbi.nlm.nih.gov/20167803/
Centromere-associated protein E (Homo sapiens), sequence (Q02224 whole entry): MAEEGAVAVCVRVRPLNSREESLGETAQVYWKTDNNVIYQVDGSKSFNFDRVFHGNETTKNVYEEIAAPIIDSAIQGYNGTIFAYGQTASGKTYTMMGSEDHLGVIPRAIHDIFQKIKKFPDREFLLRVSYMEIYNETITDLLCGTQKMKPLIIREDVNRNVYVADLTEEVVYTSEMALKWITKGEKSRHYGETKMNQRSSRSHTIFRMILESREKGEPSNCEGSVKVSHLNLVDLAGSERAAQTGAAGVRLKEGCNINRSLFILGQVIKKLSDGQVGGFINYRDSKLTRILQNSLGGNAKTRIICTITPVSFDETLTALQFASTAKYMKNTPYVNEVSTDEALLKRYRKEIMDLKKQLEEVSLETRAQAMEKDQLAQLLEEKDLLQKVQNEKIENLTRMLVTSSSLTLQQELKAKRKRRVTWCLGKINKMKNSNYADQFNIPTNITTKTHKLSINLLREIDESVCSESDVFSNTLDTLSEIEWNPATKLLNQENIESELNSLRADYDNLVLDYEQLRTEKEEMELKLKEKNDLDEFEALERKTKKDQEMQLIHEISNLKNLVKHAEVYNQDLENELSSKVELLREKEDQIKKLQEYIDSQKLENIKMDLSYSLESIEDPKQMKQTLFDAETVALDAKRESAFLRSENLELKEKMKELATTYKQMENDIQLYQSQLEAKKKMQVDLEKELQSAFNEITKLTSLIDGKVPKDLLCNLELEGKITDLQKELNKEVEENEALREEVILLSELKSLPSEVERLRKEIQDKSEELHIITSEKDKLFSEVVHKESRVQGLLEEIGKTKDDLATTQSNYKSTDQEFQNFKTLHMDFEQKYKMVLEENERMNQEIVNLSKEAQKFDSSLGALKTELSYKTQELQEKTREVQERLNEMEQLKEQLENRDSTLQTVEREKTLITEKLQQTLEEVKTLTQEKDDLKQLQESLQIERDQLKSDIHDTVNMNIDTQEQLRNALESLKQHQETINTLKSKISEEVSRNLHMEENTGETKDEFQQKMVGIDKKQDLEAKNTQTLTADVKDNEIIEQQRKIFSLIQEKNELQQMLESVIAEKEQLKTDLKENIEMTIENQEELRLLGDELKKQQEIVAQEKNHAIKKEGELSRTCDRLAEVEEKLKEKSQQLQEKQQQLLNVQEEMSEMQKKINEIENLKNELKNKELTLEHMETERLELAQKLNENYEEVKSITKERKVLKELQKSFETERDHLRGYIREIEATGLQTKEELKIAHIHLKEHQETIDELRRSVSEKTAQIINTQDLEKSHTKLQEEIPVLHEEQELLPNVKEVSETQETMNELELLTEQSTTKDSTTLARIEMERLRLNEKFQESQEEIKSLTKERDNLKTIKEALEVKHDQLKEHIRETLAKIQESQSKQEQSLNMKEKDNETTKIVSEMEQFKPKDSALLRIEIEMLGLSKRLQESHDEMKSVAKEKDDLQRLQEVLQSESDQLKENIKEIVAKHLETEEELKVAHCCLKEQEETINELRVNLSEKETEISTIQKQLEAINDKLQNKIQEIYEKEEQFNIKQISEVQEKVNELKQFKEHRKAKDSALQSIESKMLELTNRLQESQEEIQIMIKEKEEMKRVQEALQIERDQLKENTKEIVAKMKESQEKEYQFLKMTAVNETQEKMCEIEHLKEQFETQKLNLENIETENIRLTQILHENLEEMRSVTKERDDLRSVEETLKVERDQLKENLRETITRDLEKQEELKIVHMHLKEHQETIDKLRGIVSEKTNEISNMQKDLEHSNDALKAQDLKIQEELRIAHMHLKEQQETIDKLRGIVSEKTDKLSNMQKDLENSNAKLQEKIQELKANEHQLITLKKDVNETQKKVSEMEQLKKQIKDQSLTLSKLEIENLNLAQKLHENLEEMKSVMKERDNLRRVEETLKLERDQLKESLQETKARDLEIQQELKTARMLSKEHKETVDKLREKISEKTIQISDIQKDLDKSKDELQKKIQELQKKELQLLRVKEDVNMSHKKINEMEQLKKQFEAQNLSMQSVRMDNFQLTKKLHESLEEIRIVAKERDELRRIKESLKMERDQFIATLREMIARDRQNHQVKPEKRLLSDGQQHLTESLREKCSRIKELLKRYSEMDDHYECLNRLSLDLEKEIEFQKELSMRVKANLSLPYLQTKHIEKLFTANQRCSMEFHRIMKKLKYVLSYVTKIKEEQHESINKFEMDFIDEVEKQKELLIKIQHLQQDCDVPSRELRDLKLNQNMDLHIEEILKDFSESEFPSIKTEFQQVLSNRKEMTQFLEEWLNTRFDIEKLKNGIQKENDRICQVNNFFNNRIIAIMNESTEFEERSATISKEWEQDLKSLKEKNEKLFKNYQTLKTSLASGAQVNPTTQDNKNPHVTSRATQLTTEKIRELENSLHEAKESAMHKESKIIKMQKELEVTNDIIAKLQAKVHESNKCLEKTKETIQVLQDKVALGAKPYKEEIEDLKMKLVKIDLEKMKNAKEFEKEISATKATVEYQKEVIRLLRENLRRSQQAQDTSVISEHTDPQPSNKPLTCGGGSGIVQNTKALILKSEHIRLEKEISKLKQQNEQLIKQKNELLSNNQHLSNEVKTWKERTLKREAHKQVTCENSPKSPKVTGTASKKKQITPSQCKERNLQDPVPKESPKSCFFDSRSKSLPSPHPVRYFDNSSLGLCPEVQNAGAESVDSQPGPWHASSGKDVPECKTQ

[2] = target: Centromere-associated protein E (Homo sapiens) (UniProt Q02224); assay: Affinity Phenotypic Cellular interaction: (Cell-growth inhibition assays (growth inhibitory effect colon cancer cell line SF-295)) EUB0000734a CENPE; conditions: Affinity Phenotypic Cellular Source Knowledge https://pubmed.ncbi.nlm.nih.gov/20167803/
[3] = target: Centromere-associated protein E (Homo sapiens) (UniProt Q02224); assay: Affinity Phenotypic Cellular interaction: (Cell-growth inhibition assays (growth inhibitory effect colon cancer cell line U251)) EUB0000734a CENPE; conditions: U-251, Affinity Phenotypic Cellular Source Knowledge https://pubmed.ncbi.nlm.nih.gov/20167803/
[4] = target: Centromere-associated protein E (Homo sapiens) (UniProt Q02224); assay: Affinity Phenotypic Cellular interaction: (Cell-growth inhibition assays (growth inhibitory effect colon cancer cell line COLO 201)) EUB0000734a CENPE; conditions: Affinity Phenotypic Cellular Source Knowledge https://pubmed.ncbi.nlm.nih.gov/20167803/
[5] = target: Centromere-associated protein E (Homo sapiens) (UniProt Q02224); assay: Affinity Phenotypic Cellular interaction: (Cell-growth inhibition assays (growth inhibitory effect colon cancer cell line Y79)) EUB0000734a CENPE; conditions: Affinity Phenotypic Cellular Source Knowledge https://pubmed.ncbi.nlm.nih.gov/20167803/
[6] = target: Centromere-associated protein E (Homo sapiens) (UniProt Q02224); assay: Affinity Phenotypic Cellular interaction: (Cell-growth inhibition assays (growth inhibitory effect colon cancer cell line PC-3)) EUB0000734a CENPE; conditions: Affinity Phenotypic Cellular Source Knowledge https://pubmed.ncbi.nlm.nih.gov/20167803/
[7] = target: Centromere-associated protein E (Homo sapiens) (UniProt Q02224); assay: Affinity Phenotypic Cellular interaction: (Cell-growth inhibition assays (growth inhibitory effect colon cancer cell line OV-90)) EUB0000734a CENPE; conditions: Affinity Phenotypic Cellular Source Knowledge https://pubmed.ncbi.nlm.nih.gov/20167803/
[8] = target: Centromere-associated protein E (Homo sapiens) (UniProt Q02224); assay: Affinity Phenotypic Cellular interaction: (Cell-growth inhibition assays (growth inhibitory effect colon cancer cell line SCC-4)) EUB0000734a CENPE; conditions: Affinity Phenotypic Cellular Source Knowledge https://pubmed.ncbi.nlm.nih.gov/20167803/
[9] = target: Centromere-associated protein E (Homo sapiens) (UniProt Q02224); assay: Affinity Phenotypic Cellular interaction: (Cell-growth inhibition assays (growth inhibitory effect colon cancer cell line CESS)) EUB0000734a CENPE; conditions: Affinity Phenotypic Cellular Source Knowledge https://pubmed.ncbi.nlm.nih.gov/20167803/
[10] = target: Centromere-associated protein E (Homo sapiens) (UniProt Q02224); assay: Affinity Phenotypic Cellular interaction: (Cell-growth inhibition assays (growth inhibitory effect colon cancer cell line BHT-101)) EUB0000734a CENPE; conditions: Affinity Phenotypic Cellular Source Knowledge https://pubmed.ncbi.nlm.nih.gov/20167803/
[11] = target: Centromere-associated protein E (Homo sapiens) (UniProt Q02224); assay: Affinity Phenotypic Cellular interaction: (Cell-growth inhibition assays (growth inhibitory effect colon cancer cell line DB)) EUB0000734a CENPE; conditions: Affinity Phenotypic Cellular Source Knowledge https://pubmed.ncbi.nlm.nih.gov/20167803/
[12] = target: Centromere-associated protein E (Homo sapiens) (UniProt Q02224); assay: Affinity Phenotypic Cellular interaction: (Cell-growth inhibition assays (growth inhibitory effect colon cancer cell line HOP-62)) EUB0000734a CENPE; conditions: Affinity Phenotypic Cellular Source Knowledge https://pubmed.ncbi.nlm.nih.gov/20167803/
[13] = target: Centromere-associated protein E (Homo sapiens) (UniProt Q02224); assay: Affinity Phenotypic Cellular interaction: (Cell-growth inhibition assays (growth inhibitory effect colon cancer cell line UACC-257)) EUB0000734a CENPE; conditions: Affinity Phenotypic Cellular Source Knowledge https://pubmed.ncbi.nlm.nih.gov/20167803/
[14] = target: Centromere-associated protein E (Homo sapiens) (UniProt Q02224); assay: Affinity Phenotypic Cellular interaction: (Cell-growth inhibition assays (growth inhibitory effect colon cancer cell line HEC-1-B)) EUB0000734a CENPE; conditions: Affinity Phenotypic Cellular Source Knowledge https://pubmed.ncbi.nlm.nih.gov/20167803/
[15] = target: Centromere-associated protein E (Homo sapiens) (UniProt Q02224); assay: Affinity Phenotypic Cellular interaction: (Cell-growth inhibition assays (growth inhibitory effect colon cancer cell line SNB-75)) EUB0000734a CENPE; conditions: Affinity Phenotypic Cellular Source Knowledge https://pubmed.ncbi.nlm.nih.gov/20167803/
[16] = target: Centromere-associated protein E (Homo sapiens) (UniProt Q02224); assay: Affinity Phenotypic Cellular interaction: (Cell-growth inhibition assays (growth inhibitory effect colon cancer cell line G-402)) EUB0000734a CENPE; conditions: Affinity Phenotypic Cellular Source Knowledge https://pubmed.ncbi.nlm.nih.gov/20167803/
[17] = target: Centromere-associated protein E (Homo sapiens) (UniProt Q02224); assay: Affinity Phenotypic Cellular interaction: (Cell-growth inhibition assays (growth inhibitory effect colon cancer cell line A2780)) EUB0000734a CENPE; conditions: Affinity Phenotypic Cellular Source Knowledge https://pubmed.ncbi.nlm.nih.gov/20167803/
[18] = target: Centromere-associated protein E (Homo sapiens) (UniProt Q02224); assay: Affinity Phenotypic Cellular interaction: (Cell-growth inhibition assays (growth inhibitory effect colon cancer cell line SW1417)) EUB0000734a CENPE; conditions: Affinity Phenotypic Cellular Source Knowledge https://pubmed.ncbi.nlm.nih.gov/20167803/
[19] = target: Centromere-associated protein E (Homo sapiens) (UniProt Q02224); assay: Affinity Phenotypic Cellular interaction: (Cell-growth inhibition assays (growth inhibitory effect colon cancer cell line CRO-AP2)) EUB0000734a CENPE; conditions: Affinity Phenotypic Cellular Source Knowledge https://pubmed.ncbi.nlm.nih.gov/20167803/
[20] = target: Centromere-associated protein E (Homo sapiens) (UniProt Q02224); assay: Affinity Phenotypic Cellular interaction: (Cell-growth inhibition assays (growth inhibitory effect colon cancer cell line OVCAR-3)) EUB0000734a CENPE; conditions: Affinity Phenotypic Cellular Source Knowledge https://pubmed.ncbi.nlm.nih.gov/20167803/
[21] = target: Centromere-associated protein E (Homo sapiens) (UniProt Q02224); assay: Affinity Phenotypic Cellular interaction: (Cell-growth inhibition assays (growth inhibitory effect colon cancer cell line A673)) EUB0000734a CENPE; conditions: Affinity Phenotypic Cellular Source Knowledge https://pubmed.ncbi.nlm.nih.gov/20167803/
[22] = target: Centromere-associated protein E (Homo sapiens) (UniProt Q02224); assay: Affinity Phenotypic Cellular interaction: (Cell-growth inhibition assays (growth inhibitory effect colon cancer cell line NCI/ADR-RES)) EUB0000734a CENPE; conditions: Affinity Phenotypic Cellular Source Knowledge https://pubmed.ncbi.nlm.nih.gov/20167803/
[23] = target: Centromere-associated protein E (Homo sapiens) (UniProt Q02224); assay: Affinity Phenotypic Cellular interaction: (Cell-growth inhibition assays (growth inhibitory effect colon cancer cell line HCT-8)) EUB0000734a CENPE; conditions: Affinity Phenotypic Cellular Source Knowledge https://pubmed.ncbi.nlm.nih.gov/20167803/
[24] = target: Centromere-associated protein E (Homo sapiens) (UniProt Q02224); assay: Affinity Phenotypic Cellular interaction: (Cell-growth inhibition assays (growth inhibitory effect colon cancer cell line OVCAR-5)) EUB0000734a CENPE; conditions: Affinity Phenotypic Cellular Source Knowledge https://pubmed.ncbi.nlm.nih.gov/20167803/
[25] = target: Centromere-associated protein E (Homo sapiens) (UniProt Q02224); assay: Affinity Phenotypic Cellular interaction: (Cell-growth inhibition assays (growth inhibitory effect colon cancer cell line K-562)) EUB0000734a CENPE; conditions: K562, Affinity Phenotypic Cellular Source Knowledge https://pubmed.ncbi.nlm.nih.gov/20167803/
[26] = target: Centromere-associated protein E (Homo sapiens) (UniProt Q02224); assay: Affinity Phenotypic Cellular interaction: (Cell-growth inhibition assays (growth inhibitory effect colon cancer cell line RXF393)) EUB0000734a CENPE; conditions: RXF 393, Affinity Phenotypic Cellular Source Knowledge https://pubmed.ncbi.nlm.nih.gov/20167803/
[27] = target: Centromere-associated protein E (Homo sapiens) (UniProt Q02224); assay: Affinity Phenotypic Cellular interaction: (Cell-growth inhibition assays (growth inhibitory effect colon cancer cell line NCI-H292)) EUB0000734a CENPE; conditions: Affinity Phenotypic Cellular Source Knowledge https://pubmed.ncbi.nlm.nih.gov/20167803/
[28] = target: Centromere-associated protein E (Homo sapiens) (UniProt Q02224); assay: Affinity Phenotypic Cellular interaction: (Cell-growth inhibition assays (growth inhibitory effect colon cancer cell line TK-10)) EUB0000734a CENPE; conditions: Affinity Phenotypic Cellular Source Knowledge https://pubmed.ncbi.nlm.nih.gov/20167803/
[29] = target: Centromere-associated protein E (Homo sapiens) (UniProt Q02224); assay: Affinity Phenotypic Cellular interaction: (Cell-growth inhibition assays (growth inhibitory effect colon cancer cell line Detroit562)) EUB0000734a CENPE; conditions: Detroit 562, Affinity Phenotypic Cellular Source Knowledge https://pubmed.ncbi.nlm.nih.gov/20167803/
[30] = target: Centromere-associated protein E (Homo sapiens) (UniProt Q02224); assay: Affinity Phenotypic Cellular interaction: (Cell-growth inhibition assays (growth inhibitory effect colon cancer cell line T24)) EUB0000734a CENPE; conditions: T-24, Affinity Phenotypic Cellular Source Knowledge https://pubmed.ncbi.nlm.nih.gov/20167803/
[31] = target: Centromere-associated protein E (Homo sapiens) (UniProt Q02224); assay: Affinity Phenotypic Cellular interaction: (Cell-growth inhibition assays (growth inhibitory effect colon cancer cell line SNU-423)) EUB0000734a CENPE; conditions: Affinity Phenotypic Cellular Source Knowledge https://pubmed.ncbi.nlm.nih.gov/20167803/
[32] = target: Centromere-associated protein E (Homo sapiens) (UniProt Q02224); assay: Affinity Phenotypic Cellular interaction: (Cell-growth inhibition assays (growth inhibitory effect colon cancer cell line SF-268)) EUB0000734a CENPE; conditions: Affinity Phenotypic Cellular Source Knowledge https://pubmed.ncbi.nlm.nih.gov/20167803/
[33] = target: Centromere-associated protein E (Homo sapiens) (UniProt Q02224); assay: Affinity Phenotypic Cellular interaction: (Cell-growth inhibition assays (growth inhibitory effect colon cancer cell line SW1088)) EUB0000734a CENPE; conditions: Affinity Phenotypic Cellular Source Knowledge https://pubmed.ncbi.nlm.nih.gov/20167803/
[34] = target: Centromere-associated protein E (Homo sapiens) (UniProt Q02224); assay: Affinity Phenotypic Cellular interaction: (Cell-growth inhibition assays (growth inhibitory effect colon cancer cell line BV-173)) EUB0000734a CENPE; conditions: Affinity Phenotypic Cellular Source Knowledge https://pubmed.ncbi.nlm.nih.gov/20167803/
[35] = target: Centromere-associated protein E (Homo sapiens) (UniProt Q02224); assay: Affinity Phenotypic Cellular interaction: (Cell-growth inhibition assays (growth inhibitory effect colon cancer cell line NCI-H2171)) EUB0000734a CENPE; conditions: Affinity Phenotypic Cellular Source Knowledge https://pubmed.ncbi.nlm.nih.gov/20167803/
[36] = target: Centromere-associated protein E (Homo sapiens) (UniProt Q02224); assay: Affinity Phenotypic Cellular interaction: (Cell-growth inhibition assays (growth inhibitory effect colon cancer cell line BT-20)) EUB0000734a CENPE; conditions: Affinity Phenotypic Cellular Source Knowledge https://pubmed.ncbi.nlm.nih.gov/20167803/
[37] = target: Centromere-associated protein E (Homo sapiens) (UniProt Q02224); assay: Affinity Phenotypic Cellular interaction: (Cell-growth inhibition assays (growth inhibitory effect colon cancer cell line CAL-54)) EUB0000734a CENPE; conditions: Affinity Phenotypic Cellular Source Knowledge https://pubmed.ncbi.nlm.nih.gov/20167803/
[38] = target: Centromere-associated protein E (Homo sapiens) (UniProt Q02224); assay: Affinity Phenotypic Cellular interaction: (Cell-growth inhibition assays (growth inhibitory effect colon cancer cell line SW1990)) EUB0000734a CENPE; conditions: Affinity Phenotypic Cellular Source Knowledge https://pubmed.ncbi.nlm.nih.gov/20167803/

CC(C)Oc1ccc(C(=O)N[C@H](CNC(=O)CN(C)C)Cc2ccc(-c3cn4cccc([C@H](C)O)c4n3)cc2)cc1Cl
GIC50 [1]: 236 nM | GIC50 [2]: 35 nM | GIC50 [3]: 26 nM | GIC50 [4]: 24 nM | GIC50 [5]: 70 nM | GIC50 [6]: 28 nM | GIC50 [7]: 61 nM | GIC50 [8]: 28 nM | GIC50 [9]: 19 nM | GIC50 [10]: 100 nM | GIC50 [11]: 21 nM | GIC50 [12]: 20 nM | GIC50 [13]: 32 nM | GIC50 [14]: 28 nM | GIC50 [15]: 26 nM | GIC50 [16]: 31 nM | GIC50 [17]: 13 nM | GIC50 [18]: 29 nM | GIC50 [19]: 51 nM | GIC50 [20]: 42 nM | GIC50 [21]: 23 nM | GIC50 [22]: 3.96 µM | GIC50 [23]: 35 nM | GIC50 [24]: 34 nM | GIC50 [25]: 25 nM | GIC50 [26]: 32 nM | GIC50 [27]: 31 nM | GIC50 [28]: 49 nM | GIC50 [29]: 35 nM | GIC50 [30]: 45 nM | GIC50 [31]: 34 nM | GIC50 [32]: 26 nM | GIC50 [33]: 32 nM | GIC50 [34]: 56 nM | GIC50 [35]: 24 nM | GIC50 [36]: 32 nM | GIC50 [37]: 49 nM | GIC50 [38]: 127 nM
